The values below come from patent US20170008888A1 (KYORIN PHARMACEUTICAL CO., LTD., priority 2014, published 2017).

Like-named read-outs stand apart in the source and are kept apart here. Bounds are passed on as bounds.

One assay deals with human PBMCs. As to the kind of experiment: Cytokine response by primary human PBMCs stimulated with PMA/ionomycin or LPS. Type of assay: cell-based. The following applies: PBMC. On the procedure: Freshly isolated human PBMCs were purchased from Astarte Biologics (Redmond, Wash.). Cells were seeded at 2e6 cells/ml in RPMI 1640 (Life Technologies, Grand Island, N.Y.) containing 10% (v/v) charcoal-dextran treated, heat inactivated FBS (Omega Scientific, Tarzana, Calif.), 0.05 mM 2-Mercaptoethanol (Sigma-Aldrich, St. Louis, Mo.), and 1×Pen/Strep Amphotericin B (Lonza, Allendale, N.J.). Cells were pre-treated with 0.1% DMSO or with test compounds for 1 h at 37° C. in a humidified atmosphere at 5% CO2. Compounds were tested at 10 μM down by ⅕ in a 4-point serial dilution series. Cells were then stimulated with either 50 ng/ml phorbol 12-myristate 13-acetate (PMA)(Sigma-Aldrich)+1 μg/ml ionomycin (Life Technologies) or with 100 ng/ml LPS from E. coli 0111:B4 (EMD Millipore, Billerica, Mass.) for 20 h at 37° C. in a humidified atmosphere at 5% CO2. Supernatant was collected and analyzed using the Bio-Plex Pro Human Cytokine 17-Plex Panel (Bio-Rad Laboratories, Hercules, Calif.) as per manufacturer's protocols. Magnetic beads were read on the Bio-Plex MAGPIX multiplex reader instrument using the accompanying xPONENT 4.2 acquisition software (Bio-Rad Laboratories). Data were analyzed via the Bio-Plex Manager software v6.1 (Bio-Rad Laboratories).

Assay [1] deals with DNFB-induced ear inflammation mouse model. Put plainly: DNFB-induced ear inflammation (contact hypersensitivity) mouse model: ear weight. Type of assay: in vivo, mouse (Balb/c). Here is the method:
In vivo T-cell mediated immune response was examined in a mouse model of CHS using the hapten dinitrofluorobenzene (DNFB) as the induction agent. Method for sensitization and elicitation of DNFB-induced CHS was modified from Xu et al. J. Exp. Med. 1996. 183:1001-1012. On Days 0 and 1 (sensitization), 20 μL of 0.5% v/v DNFB in acetone:olive oil (4:1) was applied to each hindpaw of 8 week old male mice (Balb/c, Charles River Laboratories; 10 mice per group unless otherwise noted). On Day 5 (elicitation) 10 μL of 0.2% v/v DNFB in acetone: olive oil (4:1) was applied to the dorsal surface of the right ear of each animal; 10 μL of acetone: olive oil (4:1) was applied to the dorsal surface of the left ear as control. Treatments were administered by group as indicated in the table below; on days when DNFB was used, the QD and the morning dose of BID as appropriate were administered 30 minutes-1 hr. prior to DNFB application. […] Approximately 24 hours after elicitation (Day 6), a 7 mm tissue punch from the central portion of both ears was collected and wet weights measured. The primary functional assessment was the difference in wet weights of the right (DNFB) vs. left (vehicle) ears compared to the vehicle treatment (Vehicle1-S) as an indicator of inflammation (Table 17). Ear tissue punches were flash frozen, stored at −70° C. and analyzed for cytokines (see below). Body weights of the mice were measured at baseline and at end of study, and there were no significant changes in weight in any treatment group during the study (data not shown).

The target of a further assay is T1, BAZ2A (Homo sapiens, UniProt Q9UIF9).
T1 construct: T7 phage strains displaying bromodomains were grown in parallel; made in house; host or cells: E. coli host derived from BL21, infected with T7 phage
As to the kind of experiment: Bromodomain binding assay: BAZ2A. Here is the method: (§1) T7 phage strains displaying bromodomains were grown in parallel in 24-well blocks in an E. coli host derived from the BL21 strain. E. coli were grown to log-phase and infected with T7 phage from a frozen stock (multiplicity of infection=0.4) and incubated with shaking at 32° C. until lysis (90-150 minutes). The lysates were centrifuged (5,000×g) and filtered (0.2 μm) to remove cell debris. […] The liganded beads were blocked with excess biotin and washed with blocking buffer (SeaBlock (Pierce), 1% BSA, 0.05 Tween 20, 1 mM DTT) to remove unbound ligand and to reduce non-specific phage binding. […] Test compounds (T62 and 46) were prepared as 1000× stocks in 100% DMSO and subsequently diluted 1:10 in monoethylene glycol (MEG) to create stocks at 100× the screening concentration (resulting stock solution is 10% DMSO/90% MEG). The compounds were then diluted directly into the assays such that the final concentration of DMSO and MEG were 0.1% and 0.9%, respectively. All reactions were performed in polystyrene 96-well plates in a final volume of 0.135 ml. […] The bromodomain concentration in the eluates was measured by qPCR. Compounds were assayed for binding activity against a panel of 40 bromodomain-containing proteins.

For a further assay, the target named is T2, FALZ (Homo sapiens, UniProt Q12830).
T2 construct: made in house; host or cells: E. coli host derived from the BL21 strain (T7 phage lysate)
Put plainly: Bromodomain binding assay: FALZ. Here is the method: as §1

A further assay addresses T3, ATAD2B (Homo sapiens, UniProt Q9ULI0).
T3 construct: T7 phage strains displaying bromodomains were grown in parallel; made in house; host or cells: E. coli host derived from BL21, infected with T7 phage
As to the kind of experiment: Bromodomain binding assay: ATAD2B. Here is the method:
as §1

The mark [2] stands for this setting: 100 ng/ml LPS 20 h, read-out: EC50 (μM) under LPS stimulation, G-CSF.
The mark [3] stands for this setting: 100 ng/ml LPS 20 h, read-out: EC50 (μM) under LPS stimulation, GM-CSF.
[4] abbreviates: 100 ng/ml LPS 20 h, read-out: EC50 (μM) under LPS stimulation, IFNγ.
Where [5] appears, read: 100 ng/ml LPS 20 h, read-out: EC50 (μM) under LPS stimulation, IL-1β.
The mark [6] stands for this setting: 100 ng/ml LPS 20 h, read-out: EC50 (μM) under LPS stimulation, IL-2.
[7] abbreviates: 100 ng/ml LPS 20 h, read-out: EC50 (μM) under LPS stimulation, IL-4.
Where [8] appears, read: 100 ng/ml LPS 20 h, read-out: EC50 (μM) under LPS stimulation, IL-6.
Setting [9] is: 100 ng/ml LPS 20 h, read-out: EC50 (μM) under LPS stimulation, IL-7.
[10] abbreviates: 100 ng/ml LPS 20 h, read-out: EC50 (μM) under LPS stimulation, IL-10.
Where [11] appears, read: 100 ng/ml LPS 20 h, read-out: EC50 (μM) under LPS stimulation, IL-12.
Setting [12] is: 100 ng/ml LPS 20 h, read-out: EC50 (μM) under LPS stimulation, IL-13.
[13] abbreviates: 100 ng/ml LPS 20 h, read-out: EC50 (μM) under LPS stimulation, IL-17A.
The mark [14] stands for this setting: 100 ng/ml LPS 20 h, read-out: EC50 (μM) under LPS stimulation, MCP-1.
The mark [15] stands for this setting: 100 ng/ml LPS 20 h, read-out: EC50 (μM) under LPS stimulation, TNFα.
Where [16] appears, read: PMA/ionomycin 20 h, read-out: EC50 (μM) under PMA/ionomycin stimulation, GM-CSF.
Setting [17] is: PMA/ionomycin 20 h, read-out: EC50 (μM) under PMA/ionomycin stimulation, IL-4.
[18] abbreviates: PMA/ionomycin 20 h, read-out: EC50 (μM) under PMA/ionomycin stimulation, IL-5.
Setting [19] is: PMA/ionomycin 20 h, read-out: EC50 (μM) under PMA/ionomycin stimulation, IL-6.
Where [20] appears, read: PMA/ionomycin 20 h, read-out: EC50 (μM) under PMA/ionomycin stimulation, IL-7.
The mark [21] stands for this setting: PMA/ionomycin 20 h, read-out: EC50 (μM) under PMA/ionomycin stimulation, IL-10.
Setting [22] is: PMA/ionomycin 20 h, read-out: EC50 (μM) under PMA/ionomycin stimulation, IL-12.
Setting [23] is: PMA/ionomycin 20 h, read-out: EC50 (μM) under PMA/ionomycin stimulation, IL-13.
The mark [24] stands for this setting: PMA/ionomycin 20 h, read-out: EC50 (μM) under PMA/ionomycin stimulation, IL-17A.
[25] abbreviates: PMA/ionomycin 20 h, read-out: EC50 (μM) under PMA/ionomycin stimulation, MCP-1.
Setting [26] is: PMA/ionomycin 20 h, read-out: EC50 (μM) under PMA/ionomycin stimulation, MIP-1β.
Setting [27] is: PMA/ionomycin 20 h, read-out: EC50 (μM) under PMA/ionomycin stimulation, TNFα.
Setting [28] is: 25 mg/kg PO, BID on Day 5 (elicitation).
Where [29] appears, read: 60 mg/kg PO, BID Days 0-5 (from sensitization).
[30] abbreviates: 60 mg/kg PO, BID on Day 5 (elicitation).

T3 sequence (Q9ULI0 951-1066 limits assumed, species assumed): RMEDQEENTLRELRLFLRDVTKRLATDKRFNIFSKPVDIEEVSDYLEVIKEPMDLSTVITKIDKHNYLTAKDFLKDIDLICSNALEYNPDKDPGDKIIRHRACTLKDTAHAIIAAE
T1 sequence (Q9UIF9 1793-1897 limits assumed, species assumed): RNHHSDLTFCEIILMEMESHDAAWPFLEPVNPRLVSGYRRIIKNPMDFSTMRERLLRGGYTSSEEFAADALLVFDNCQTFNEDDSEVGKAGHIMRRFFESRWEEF

In the case of `CCOc1cc(C(=O)N2CCCN(C)CC2)ccc1Nc1cc2c(cn1)N(C)C(=O)c1ccccc1N2C` [Compound 8], the EC50 was found to be 4.95 µM with human PBMCs (setting [2]); 4.04 µM in the assay on human PBMCs (setting [3]); 1.67 µM with human PBMCs (setting [4]); 3.92 µM with human PBMCs (setting [5]); 7.93 µM in the assay on human PBMCs (setting [6]); 10.9 µM with human PBMCs (setting [7]). Also, the EC50 is 4.49 µM with human PBMCs (setting [8]); 9.89 µM with human PBMCs (setting [9]); 1.09 µM with human PBMCs (setting [10]); 1.95 µM with human PBMCs (setting [11]); 6.9 µM in the assay with human PBMCs (setting [12]); more than 10 µM in the assay with human PBMCs (setting [13]). Moreover, the EC50 in the assay with human PBMCs (setting [14]) was 0.237 µM; with human PBMCs (setting [15]), 0.304 µM; in the assay on human PBMCs (setting [16]), 4.67 µM; in the assay with human PBMCs (setting [17]) it was more than 10 µM; in the assay on human PBMCs (setting [18]), 3.88 µM; with human PBMCs (setting [19]), 2.35 µM. In addition, the EC50 in the assay on human PBMCs (setting [20]) was more than 10 µM; in the assay with human PBMCs (setting [21]), 0.627 µM; in the assay on human PBMCs (setting [22]), more than 10 µM; in the assay with human PBMCs (setting [23]) it was 4.22 µM; with human PBMCs (setting [24]), more than 10 µM; in the assay with human PBMCs (setting [25]), 0.401 µM. Moreover, the EC50 was 4.28 µM with human PBMCs (setting [26]) and 8.17 µM with human PBMCs (setting [27]). Also, the “% Reduction Weight Increase Vs. Vehicle 1 Weight Increase” value was −9.4% in assay [1] (setting [28]), −38.5% in assay [1] (setting [29]) and −22.6% in assay [1] (setting [30]).

Turning to `CCOc1cc(C(=O)N2CCC(N3CCCC3)CC2)ccc1Nc1cc2c(cn1)N(C)C(=O)c1ccccc1N2C` [Compound 46, 3-(2-Ethoxy-4-(4-(pyrrolidin-1-yl)piperidine-1-carbonyl)phenylamino)-5,11-dimethyl-5H-benzo[e]pyrido[3,4-b][1,4]diazepin-10(11H)-one], the equilibrium dissociation constant (Kd) at BAZ2A, on FALZ and at ATAD2B was more than 20 µM throughout. Besides, the EC50 came to 2.52 µM in the assay with human PBMCs (setting [2]); 2.14 µM in the assay with human PBMCs (setting [3]); 0.63 µM with human PBMCs (setting [4]); 1.65 µM in the assay on human PBMCs (setting [5]); 3.12 µM with human PBMCs (setting [6]); 5.15 µM in the assay with human PBMCs (setting [7]). Also, the EC50 with human PBMCs (setting [8]) was 2.07 µM; in the assay with human PBMCs (setting [9]), 4.21 µM; in the assay on human PBMCs (setting [10]) it was 0.467 µM; in the assay with human PBMCs (setting [11]) it was 0.713 µM; in the assay on human PBMCs (setting [12]), 3.12 µM; in the assay on human PBMCs (setting [13]), more than 10 µM. Also, the EC50 with human PBMCs (setting [14]) was 0.104 µM; in the assay on human PBMCs (setting [15]) it was 0.124 µM; in the assay with human PBMCs (setting [16]) it was 3.27 µM; in the assay with human PBMCs (setting [17]), more than 10 µM; in the assay on human PBMCs (setting [18]), 3.16 µM; in the assay on human PBMCs (setting [19]) it was 0.9 µM. In addition, the EC50 in the assay on human PBMCs (setting [20]) was more than 10 µM; with human PBMCs (setting [21]), 0.181 µM; in the assay on human PBMCs (setting [22]), more than 10 µM; in the assay on human PBMCs (setting [23]), 4.77 µM; with human PBMCs (setting [24]) it was more than 10 µM; in the assay on human PBMCs (setting [25]), 0.143 µM. Further, the figures for the EC50 with human PBMCs (setting [26]) and in the assay on human PBMCs (setting [27]) were 8.07 µM and 4.14 µM, respectively. The “% Reduction Weight Increase Vs. Vehicle 1 Weight Increase” value in assay [1] (setting [28]) is −39.5%; in assay [1] (setting [29]), −39.5%; in assay [1] (setting [30]), −40.5%.

Take `CCOc1cc(C(=O)N[C@H]2CC[C@H](O)CC2)ccc1Nc1cc2c(cn1)N(C)C(=O)c1ccccc1N2C` [Compound T62]: the Kd on BAZ2A, at FALZ and at ATAD2B was more than 20 µM in each case.
